This passage reports Ki results from ChEMBL document CHEMBL5725612, “Pyridone FabI inhibitors and uses thereof” (2018).

The experiment deals with T1, Enoyl-[acyl-carrier-protein] reductase [NADPH] FabI (Staphylococcus aureus, UniProt Q6GI75).
T1 sequence (Q6GI75 whole entry): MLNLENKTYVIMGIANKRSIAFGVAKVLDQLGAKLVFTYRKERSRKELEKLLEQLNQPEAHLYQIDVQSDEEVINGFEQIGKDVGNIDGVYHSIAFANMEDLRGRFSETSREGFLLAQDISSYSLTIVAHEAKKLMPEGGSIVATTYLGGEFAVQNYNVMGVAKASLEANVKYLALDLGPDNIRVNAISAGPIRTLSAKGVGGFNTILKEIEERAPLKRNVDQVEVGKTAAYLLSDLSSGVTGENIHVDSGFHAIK
Briefly: Tight-binding assay: Kinetics were performed on a Cary 100 spectrophotometer (Varian) at 20° C. Reaction velocities were measured by monitoring the oxidation of NAD(P)H to NAD(P)+ at 340 nm (Figure US10071965-20180911-P00001=6220 M−1 cm−1). For saFabI, the reaction mixture was identical to that described previously for progress curve experiments (Schiebel et al. (2012). Structure 20:802-13). For ecFabI, the final reaction mixture contained ecFabI (75 nM), trans-2-butenoyl-CoA (800 μM; Sigma and Advent Bio), NADH (300 μM; Sigma), NAD+ (400 μM; Sigma), and inhibitor (2 v/v % DMSO) in 50 mM potassium phosphate, pH 7.5, 150 mM NaCl, 8 v/v % glycerol. For InhA, the final reaction mixture contained InhA (100 nM), trans-2-octenoyl-CoA (200 μM), NADH (250 μM), NAD+ (200 μM), and inhibitor (2 v/v % DMSO) in 30 mM PIPES, pH 6.8, 150 mM NaCl, 1 mM EDTA, 8 v/v % glycerol. The resulting curves were fit to the Morrison and Walsh integrated rate equation (Equation 1) (Morrison et al.

For the compound `Oc1ccccc1Oc1ccccc1`, the Ki came to 24.5 µM.

Usually Ki stands for the dissociation constant of the complex between target and ligand, obtained from inhibition or displacement.
